Results taken from ChEMBL document CHEMBL1201862, “PubChem BioAssay data set” (2004).
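Where inhibition never reached the appropriate level, the endpoint shown equals the highest concentration tested. Otherwise, values were interpolated linearly from a five-concentration, 48-hour dose response in 96-well plates. GI50 marks 50% less growth.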 Active and inactive are the calls of the source. No stated cut-off is given here; in the data, active = GI50 up to about 1.1 µM and inactive = higher.

Experiments:
Assay in all cases: DTP human tumour cell line panel, 48 h
786-0 = test system: 786-0
A498 = test system: A498
A549 = test system: A549
ACHN = test system: ACHN
CAKI-1 = test system: CAKI-1
CCRF-CEM = test system: CCRF-CEM
COLO 205 = test system: COLO 205
DLD-1 = test system: DLD-1
DMS-114 = test system: DMS-114
EKVX = test system: EKVX
HCC 2998 = test system: HCC 2998
HCT-116 = test system: HCT-116
HCT-15 = test system: HCT-15
HL-60 = test system: HL-60
HOP-62 = test system: HOP-62
HOP-92 = test system: HOP-92
IGROV-1 = test system: IGROV-1
K562 = test system: K562
KM-20L2 = test system: KM-20L2
LOX IMVI = test system: LOX IMVI
LXFL 529 = test system: LXFL 529
M14 = test system: M14
M19-MEL = test system: M19-MEL
MOLT-4 = test system: MOLT-4
Malme-3M = test system: Malme-3M
NCI-H226 = test system: NCI-H226
NCI-H23 = test system: NCI-H23
NCI-H460 = test system: NCI-H460
NCI-H522 = test system: NCI-H522
OVCAR-4 = test system: OVCAR-4
OVCAR-5 = test system: OVCAR-5
OVCAR-8 = test system: OVCAR-8
RPMI-8226 = test system: RPMI-8226
RXF 393 = test system: RXF 393
RXF 631 = test system: RXF 631
SF-268 = test system: SF-268
SF-539 = test system: SF-539
SK-MEL-28 = test system: SK-MEL-28
SK-MEL-2 = test system: SK-MEL-2
SK-MEL-5 = test system: SK-MEL-5
SK-OV-3 = test system: SK-OV-3
SN12C = test system: SN12C
SNB-19 = test system: SNB-19
SNB-75 = test system: SNB-75
SNB-78 = test system: SNB-78
SW-620 = test system: SW-620
TK-10 = test system: TK-10
U-251 = test system: U-251
UACC-62 = test system: UACC-62
UO-31 = test system: UO-31
XF498 = test system: XF498
DMS-273 = test system: DMS-273
HT-29 = test system: HT-29
KM12 = test system: KM12
OVCAR-3 = test system: OVCAR-3
SF-295 = test system: SF-295
UACC-257 = test system: UACC-257

Measured: GI50

O=C(c1ccccc1)N1C2C3CC(OCc4ccccc4)(OCc4ccccc4)C(O3)C21 (centres undefined)
inactive: 786-0 > 100 µM | A498 > 100 µM | A549 > 100 µM | ACHN > 100 µM | CAKI-1 > 100 µM | CCRF-CEM > 100 µM | COLO 205 > 100 µM | DLD-1 > 100 µM | DMS-114 > 100 µM | EKVX > 100 µM | HCC 2998 > 100 µM | HCT-116 > 100 µM | HL-60 > 100 µM | HOP-62 > 100 µM | HOP-92 > 100 µM | IGROV-1 > 100 µM | K562 62.2 µM | KM-20L2 > 100 µM | LOX IMVI > 100 µM | LXFL 529 > 100 µM | M14 > 100 µM | M19-MEL > 100 µM | MOLT-4 > 100 µM | Malme-3M > 100 µM | NCI-H226 > 100 µM | NCI-H23 > 100 µM | NCI-H460 > 100 µM | NCI-H522 > 100 µM | OVCAR-4 > 100 µM | OVCAR-5 > 100 µM | OVCAR-8 > 100 µM | RPMI-8226 54.2 µM | RXF 393 > 100 µM | RXF 631 > 100 µM | SF-268 > 100 µM | SF-539 > 100 µM | SK-MEL-28 > 100 µM | SK-MEL-2 > 100 µM | SK-MEL-5 > 100 µM | SK-OV-3 > 100 µM | SN12C > 100 µM | SNB-19 > 100 µM | SNB-75 > 100 µM | SNB-78 > 100 µM | SW-620 > 100 µM | TK-10 > 100 µM | U-251 > 100 µM | UACC-62 > 100 µM | UO-31 > 100 µM | XF498 > 100 µM
> 100 µM: HCT-15

COc1cc2c(c(OC)c1OC)-c1ccc(SC)c(=O)cc1[C@@H](NC(=O)c1cccc([N+](=O)[O-])c1)CC2
inactive: OVCAR-4 13.1 µM | OVCAR-5 > 100 µM
active: 786-0 0.0351 µM | A498 0.0198 µM | ACHN 0.0489 µM | CAKI-1 0.049 µM | CCRF-CEM 0.0301 µM | COLO 205 0.0168 µM | DLD-1 < 0.01 µM | DMS-273 < 0.01 µM | EKVX 0.0386 µM | HCC 2998 0.0207 µM | HCT-116 0.0174 µM | HL-60 < 0.01 µM | HOP-62 0.0257 µM | HT-29 0.0241 µM | IGROV-1 0.0288 µM | K562 < 0.01 µM | KM-20L2 0.0172 µM | KM12 < 0.01 µM | LXFL 529 0.0239 µM | M14 0.0154 µM | M19-MEL 0.0296 µM | MOLT-4 0.0202 µM | Malme-3M 0.0161 µM | NCI-H226 < 0.01 µM | NCI-H23 < 0.01 µM | NCI-H522 < 0.01 µM | OVCAR-3 0.0191 µM | OVCAR-8 0.024 µM | RPMI-8226 0.0208 µM | RXF 631 0.0164 µM | SF-268 0.0214 µM | SF-295 0.0208 µM | SF-539 0.0171 µM | SK-MEL-28 0.0414 µM | SK-MEL-5 0.0179 µM | SK-OV-3 0.021 µM | SN12C 0.0282 µM | SNB-75 0.0264 µM | SNB-78 0.0243 µM | SW-620 0.0276 µM | TK-10 0.047 µM | U-251 0.0221 µM | UACC-257 < 0.01 µM | UACC-62 0.0292 µM | UO-31 0.0516 µM | XF498 0.0205 µM
